Read-outs that look alike come from different tables or passages of the source.
Legend:
Format in all cases: biochemical
ERK2 = ERK2 (Homo sapiens, UniProt P28482); assay: Kinase profiling ERK2; details: for remaining activity at 100 µM: read-out: residual kinase activity, ERK2
Source text: (§1) Any value less that 25 is considered to be highly significant inhibition.

RSK1 = RSK1 (Homo sapiens, UniProt Q15418); assay: Kinase profiling RSK1; details: for remaining activity at 100 µM: read-out: residual kinase activity, RSK1
RSK1, sequence (Q15418 whole entry, species assumed): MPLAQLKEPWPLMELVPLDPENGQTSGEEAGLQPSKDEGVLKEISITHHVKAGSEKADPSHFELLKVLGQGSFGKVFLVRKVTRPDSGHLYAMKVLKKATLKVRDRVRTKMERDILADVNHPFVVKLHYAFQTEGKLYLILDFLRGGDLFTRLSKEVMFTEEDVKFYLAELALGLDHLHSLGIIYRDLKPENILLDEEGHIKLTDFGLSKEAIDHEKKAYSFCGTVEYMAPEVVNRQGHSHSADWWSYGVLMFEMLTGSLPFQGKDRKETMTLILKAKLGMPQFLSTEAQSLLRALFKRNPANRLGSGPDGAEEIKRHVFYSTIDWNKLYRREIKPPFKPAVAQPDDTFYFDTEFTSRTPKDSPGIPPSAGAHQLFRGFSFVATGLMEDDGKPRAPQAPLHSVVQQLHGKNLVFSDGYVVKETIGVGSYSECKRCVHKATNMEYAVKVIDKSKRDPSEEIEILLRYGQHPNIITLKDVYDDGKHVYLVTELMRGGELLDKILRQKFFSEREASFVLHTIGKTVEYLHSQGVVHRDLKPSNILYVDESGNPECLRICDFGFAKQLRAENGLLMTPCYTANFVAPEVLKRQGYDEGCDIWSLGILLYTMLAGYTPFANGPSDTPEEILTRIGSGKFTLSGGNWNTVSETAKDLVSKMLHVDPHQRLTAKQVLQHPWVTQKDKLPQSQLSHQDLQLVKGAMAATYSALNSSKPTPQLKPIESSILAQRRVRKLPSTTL
Source text: as §1

RSK2 = RSK2 (Homo sapiens, UniProt P51812); assay: Kinase profiling RSK2; details: for remaining activity at 100 µM: read-out: residual kinase activity, RSK2
RSK2, sequence (P51812 whole entry, species assumed): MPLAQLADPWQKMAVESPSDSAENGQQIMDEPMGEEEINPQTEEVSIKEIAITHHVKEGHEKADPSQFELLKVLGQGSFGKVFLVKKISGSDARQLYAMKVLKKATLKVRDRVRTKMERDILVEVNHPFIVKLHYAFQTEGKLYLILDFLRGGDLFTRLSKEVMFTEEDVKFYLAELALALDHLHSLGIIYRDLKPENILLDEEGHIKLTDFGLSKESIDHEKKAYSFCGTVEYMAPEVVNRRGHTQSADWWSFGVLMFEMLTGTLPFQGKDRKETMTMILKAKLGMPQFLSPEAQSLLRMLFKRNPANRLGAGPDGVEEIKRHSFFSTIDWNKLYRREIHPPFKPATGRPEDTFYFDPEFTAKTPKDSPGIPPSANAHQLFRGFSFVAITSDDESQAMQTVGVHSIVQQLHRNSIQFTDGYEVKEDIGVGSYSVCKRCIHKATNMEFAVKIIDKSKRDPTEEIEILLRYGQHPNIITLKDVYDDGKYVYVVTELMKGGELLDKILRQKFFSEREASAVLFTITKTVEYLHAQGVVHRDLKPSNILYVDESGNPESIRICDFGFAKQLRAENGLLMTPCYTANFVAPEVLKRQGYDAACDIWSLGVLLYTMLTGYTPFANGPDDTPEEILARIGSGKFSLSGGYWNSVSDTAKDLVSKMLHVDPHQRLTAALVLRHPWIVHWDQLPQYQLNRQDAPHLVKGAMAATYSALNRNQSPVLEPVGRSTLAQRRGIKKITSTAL
Source text: as §1

PKBb = PKBb (Homo sapiens, UniProt P31751); assay: Kinase profiling PKBb; details: for remaining activity at 100 µM: read-out: residual kinase activity, PKBb; for residual kinase activity, PKBb: 100 micromolar inhibitor concentration, 100 is no change
Source text: as §1

PKCz = target: T1, PKCz (Homo sapiens, UniProt Q05513); assay: Kinase profiling PKCz; details: for remaining activity at 100 µM: read-out: residual kinase activity, PKCz
T1 sequence (Q05513 1-592): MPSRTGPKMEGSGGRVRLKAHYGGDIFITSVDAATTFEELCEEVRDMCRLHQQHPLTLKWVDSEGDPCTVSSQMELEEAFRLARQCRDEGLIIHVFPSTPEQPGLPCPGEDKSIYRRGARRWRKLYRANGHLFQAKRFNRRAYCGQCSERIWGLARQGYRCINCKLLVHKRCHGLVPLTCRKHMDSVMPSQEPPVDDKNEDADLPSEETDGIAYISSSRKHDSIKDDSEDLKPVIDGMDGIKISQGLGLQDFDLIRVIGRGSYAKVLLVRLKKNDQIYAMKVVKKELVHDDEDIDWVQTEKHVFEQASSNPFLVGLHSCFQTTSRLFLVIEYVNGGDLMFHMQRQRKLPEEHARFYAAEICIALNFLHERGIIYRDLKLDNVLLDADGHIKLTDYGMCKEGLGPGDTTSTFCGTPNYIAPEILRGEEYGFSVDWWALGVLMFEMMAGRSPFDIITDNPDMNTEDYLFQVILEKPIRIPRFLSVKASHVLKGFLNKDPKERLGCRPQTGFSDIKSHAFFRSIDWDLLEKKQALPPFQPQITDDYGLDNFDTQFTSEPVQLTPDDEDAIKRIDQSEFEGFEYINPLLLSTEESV
Source text: as §1

CHK2 = CHK2 (Homo sapiens, UniProt O96017); assay: Kinase profiling CHK2; details: for remaining activity at 100 µM: read-out: residual kinase activity, CHK2
CHK2, sequence (O96017 whole entry, species assumed): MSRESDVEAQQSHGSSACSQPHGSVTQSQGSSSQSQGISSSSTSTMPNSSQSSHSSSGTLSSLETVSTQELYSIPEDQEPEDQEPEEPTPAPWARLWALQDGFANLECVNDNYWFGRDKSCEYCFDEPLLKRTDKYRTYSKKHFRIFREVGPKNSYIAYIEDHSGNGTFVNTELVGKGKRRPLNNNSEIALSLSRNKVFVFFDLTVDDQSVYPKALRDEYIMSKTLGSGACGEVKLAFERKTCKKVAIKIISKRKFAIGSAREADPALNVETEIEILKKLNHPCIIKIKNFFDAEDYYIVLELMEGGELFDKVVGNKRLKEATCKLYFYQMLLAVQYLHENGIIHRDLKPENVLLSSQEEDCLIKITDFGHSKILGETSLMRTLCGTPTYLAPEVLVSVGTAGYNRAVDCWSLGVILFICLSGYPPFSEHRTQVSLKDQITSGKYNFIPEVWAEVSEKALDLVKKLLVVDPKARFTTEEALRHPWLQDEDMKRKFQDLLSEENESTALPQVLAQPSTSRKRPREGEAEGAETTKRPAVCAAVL
Source text: as §1

NEK6 = NEK6 (Homo sapiens, UniProt Q9HC98); assay: Kinase profiling NEK6; details: for remaining activity at 100 µM: read-out: residual kinase activity, NEK6
Source text: as §1

PIM1 = PIM1 (Homo sapiens, UniProt P11309); assay: Kinase profiling PIM1; details: for remaining activity at 100 µM: read-out: residual kinase activity, PIM1
PIM1, sequence (P11309 whole entry, species assumed): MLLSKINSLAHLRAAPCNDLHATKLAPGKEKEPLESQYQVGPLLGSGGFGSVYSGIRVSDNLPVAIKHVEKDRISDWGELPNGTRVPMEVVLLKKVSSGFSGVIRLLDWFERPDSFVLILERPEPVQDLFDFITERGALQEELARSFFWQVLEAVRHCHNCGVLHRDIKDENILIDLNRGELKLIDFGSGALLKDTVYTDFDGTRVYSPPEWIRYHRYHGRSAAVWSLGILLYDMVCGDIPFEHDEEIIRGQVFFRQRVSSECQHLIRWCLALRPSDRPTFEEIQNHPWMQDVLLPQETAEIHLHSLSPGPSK
Source text: as §1

EF2K = EF2K (Homo sapiens, UniProt O00418); assay: Kinase profiling EF2K; details: for remaining activity at 100 µM: read-out: residual kinase activity, EF2K
Source text: as §1

MST2 = target: T2, MST2 (Homo sapiens, UniProt Q13188); assay: Kinase profiling MST2; details: for remaining activity at 100 µM: read-out: residual kinase activity, MST2
T2 sequence (Q13188 1-491): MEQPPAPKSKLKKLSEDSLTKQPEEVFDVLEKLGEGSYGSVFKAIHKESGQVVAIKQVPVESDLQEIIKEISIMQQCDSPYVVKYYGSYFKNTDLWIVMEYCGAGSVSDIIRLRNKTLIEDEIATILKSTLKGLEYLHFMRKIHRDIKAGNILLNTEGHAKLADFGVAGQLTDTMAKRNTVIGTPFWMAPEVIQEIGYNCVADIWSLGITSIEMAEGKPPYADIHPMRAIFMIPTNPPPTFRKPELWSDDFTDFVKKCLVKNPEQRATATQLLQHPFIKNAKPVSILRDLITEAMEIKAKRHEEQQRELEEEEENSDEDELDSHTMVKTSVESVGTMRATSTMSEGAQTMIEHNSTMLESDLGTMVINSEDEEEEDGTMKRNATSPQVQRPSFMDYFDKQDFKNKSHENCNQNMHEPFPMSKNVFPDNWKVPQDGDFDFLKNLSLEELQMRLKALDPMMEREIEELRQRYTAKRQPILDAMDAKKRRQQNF
Source text: as §1

MLK3 = MLK3 (Homo sapiens, UniProt Q16584); assay: Kinase profiling MLK3; details: for remaining activity at 100 µM: read-out: residual kinase activity, MLK3
MLK3, sequence (Q16584 whole entry, species assumed): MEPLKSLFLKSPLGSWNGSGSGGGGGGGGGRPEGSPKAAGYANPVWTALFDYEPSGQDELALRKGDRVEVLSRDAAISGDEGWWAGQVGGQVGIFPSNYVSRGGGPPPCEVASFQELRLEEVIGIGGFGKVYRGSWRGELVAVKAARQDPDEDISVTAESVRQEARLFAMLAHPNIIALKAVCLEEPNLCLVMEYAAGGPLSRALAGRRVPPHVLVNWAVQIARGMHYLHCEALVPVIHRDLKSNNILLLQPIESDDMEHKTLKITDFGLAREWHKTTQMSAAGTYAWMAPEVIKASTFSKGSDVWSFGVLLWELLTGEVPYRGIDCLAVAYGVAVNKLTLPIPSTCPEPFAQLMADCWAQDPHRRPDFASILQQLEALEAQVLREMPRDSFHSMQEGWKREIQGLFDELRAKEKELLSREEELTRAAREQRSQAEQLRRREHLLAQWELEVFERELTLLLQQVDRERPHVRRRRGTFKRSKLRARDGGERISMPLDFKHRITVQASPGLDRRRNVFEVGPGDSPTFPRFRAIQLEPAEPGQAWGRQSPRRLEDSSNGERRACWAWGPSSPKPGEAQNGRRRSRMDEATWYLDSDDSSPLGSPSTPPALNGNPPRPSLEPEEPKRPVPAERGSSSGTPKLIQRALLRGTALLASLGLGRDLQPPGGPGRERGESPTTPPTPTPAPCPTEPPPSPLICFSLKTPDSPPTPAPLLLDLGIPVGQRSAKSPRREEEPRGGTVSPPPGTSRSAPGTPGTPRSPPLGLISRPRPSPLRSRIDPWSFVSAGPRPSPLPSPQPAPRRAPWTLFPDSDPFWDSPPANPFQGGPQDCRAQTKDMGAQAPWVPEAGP
Source text: as §1

TAK1 = target: T3, TAK1 (Homo sapiens, UniProt O43318); assay: Kinase profiling TAK1; details: for remaining activity at 100 µM: read-out: residual kinase activity, TAK1
T3 sequence (O43318 1-303 limits assumed): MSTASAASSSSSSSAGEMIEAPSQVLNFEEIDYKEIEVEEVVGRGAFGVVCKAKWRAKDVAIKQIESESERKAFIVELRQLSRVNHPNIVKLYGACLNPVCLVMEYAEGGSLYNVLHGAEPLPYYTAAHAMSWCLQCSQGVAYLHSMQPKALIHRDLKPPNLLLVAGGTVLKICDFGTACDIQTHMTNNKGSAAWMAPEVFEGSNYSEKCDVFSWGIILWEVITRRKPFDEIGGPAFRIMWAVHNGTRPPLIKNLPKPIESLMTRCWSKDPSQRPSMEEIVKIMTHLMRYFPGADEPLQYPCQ
T3 sequence (Q15750 437-504 partner limits assumed): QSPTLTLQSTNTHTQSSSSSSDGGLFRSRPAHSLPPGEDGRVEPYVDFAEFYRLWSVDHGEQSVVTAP
Source text: as §1

SYK = SYK (Homo sapiens, UniProt P43405); assay: Kinase profiling SYK; details: for remaining activity at 100 µM: read-out: residual kinase activity, SYK
Source text: as §1

HER4 = HER4 (Homo sapiens, UniProt Q15303); assay: Kinase profiling HER4; details: for remaining activity at 100 µM: read-out: residual kinase activity, HER4
HER4, sequence (Q15303 26-1308, species assumed): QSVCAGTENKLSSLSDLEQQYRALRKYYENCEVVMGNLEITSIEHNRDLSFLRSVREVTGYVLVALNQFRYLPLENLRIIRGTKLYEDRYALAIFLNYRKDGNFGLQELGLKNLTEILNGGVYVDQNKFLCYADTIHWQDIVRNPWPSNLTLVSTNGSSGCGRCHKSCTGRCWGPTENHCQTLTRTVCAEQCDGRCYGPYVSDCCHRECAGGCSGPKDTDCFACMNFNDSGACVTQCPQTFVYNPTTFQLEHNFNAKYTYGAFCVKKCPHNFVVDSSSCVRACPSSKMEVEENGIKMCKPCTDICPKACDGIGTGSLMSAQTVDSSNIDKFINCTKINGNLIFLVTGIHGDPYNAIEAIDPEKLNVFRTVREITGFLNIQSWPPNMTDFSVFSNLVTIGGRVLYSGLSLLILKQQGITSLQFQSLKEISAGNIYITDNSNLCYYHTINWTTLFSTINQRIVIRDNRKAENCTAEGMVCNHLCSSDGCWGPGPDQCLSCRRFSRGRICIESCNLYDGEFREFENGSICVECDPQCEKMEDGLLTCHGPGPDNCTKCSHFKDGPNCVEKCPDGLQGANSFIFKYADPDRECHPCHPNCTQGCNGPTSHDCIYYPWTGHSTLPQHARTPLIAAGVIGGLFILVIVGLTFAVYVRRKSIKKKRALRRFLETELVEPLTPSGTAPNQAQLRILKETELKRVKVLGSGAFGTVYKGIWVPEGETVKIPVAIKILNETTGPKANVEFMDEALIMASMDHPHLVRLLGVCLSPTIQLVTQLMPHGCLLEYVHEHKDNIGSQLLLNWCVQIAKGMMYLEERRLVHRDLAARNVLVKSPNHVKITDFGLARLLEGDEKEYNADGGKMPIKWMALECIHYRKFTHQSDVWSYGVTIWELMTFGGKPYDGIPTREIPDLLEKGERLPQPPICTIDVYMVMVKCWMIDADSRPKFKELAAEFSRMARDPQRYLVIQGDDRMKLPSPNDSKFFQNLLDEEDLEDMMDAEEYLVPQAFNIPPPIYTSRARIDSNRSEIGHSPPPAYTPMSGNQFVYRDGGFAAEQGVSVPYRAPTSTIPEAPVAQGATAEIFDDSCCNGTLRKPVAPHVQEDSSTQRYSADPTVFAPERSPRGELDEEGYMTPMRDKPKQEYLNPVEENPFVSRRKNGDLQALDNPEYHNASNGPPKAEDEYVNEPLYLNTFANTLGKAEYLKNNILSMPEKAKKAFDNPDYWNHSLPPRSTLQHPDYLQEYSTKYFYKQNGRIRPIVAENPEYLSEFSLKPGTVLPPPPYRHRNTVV
Source text: as §1

[1] = 100 micromolar inhibitor concentration, 100 is no change
[2] = 100 micromolar inhibitor, 100 = no change

ERK2, sequence (P28482 whole entry, species assumed): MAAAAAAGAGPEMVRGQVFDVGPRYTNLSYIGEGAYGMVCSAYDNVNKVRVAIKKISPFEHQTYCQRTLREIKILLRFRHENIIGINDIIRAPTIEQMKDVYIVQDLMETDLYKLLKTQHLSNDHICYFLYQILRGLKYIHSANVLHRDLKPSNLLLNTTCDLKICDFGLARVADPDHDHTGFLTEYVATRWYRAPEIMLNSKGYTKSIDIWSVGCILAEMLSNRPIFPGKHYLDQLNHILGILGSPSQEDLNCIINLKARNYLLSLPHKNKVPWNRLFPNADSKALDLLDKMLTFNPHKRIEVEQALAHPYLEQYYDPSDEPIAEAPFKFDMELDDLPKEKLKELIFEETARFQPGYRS

Row | Structure (SMILES) | remaining activity at 100 µM (ERK2; [1]) [%] | remaining activity at 100 µM (RSK1; [1]) [%] | remaining activity at 100 µM (RSK2; [1]) [%] | remaining activity at 100 µM (PKBb) [%] | remaining activity at 100 µM (PKCz; [1]) [%] | remaining activity at 100 µM (CHK2; [1]) [%] | residual kinase activity, ERK2 (ERK2; [1]) | residual kinase activity, RSK1 (RSK1; [1]) | residual kinase activity, RSK2 (RSK2; [1]) | residual kinase activity, PKBb (PKBb) | residual kinase activity, PKCz (PKCz; [1]) | residual kinase activity, CHK2 (CHK2; [1]) | residual kinase activity, NEK6 (NEK6; [1]) | residual kinase activity, PIM1 (PIM1; [1]) | residual kinase activity, EF2K (EF2K; [1]) | residual kinase activity, MST2 (MST2; [1]) | residual kinase activity, MLK3 (MLK3; [1]) | residual kinase activity, TAK1 (TAK1; [1]) | residual kinase activity, SYK (SYK; [1]) | residual kinase activity, HER4 (HER4; [1]) | further results
1 | CC(=O)Nc1nc2ccc(C#N)cc2s1 [Compound 01-94] | 91 | 51 | 87 | 98 | 80 | 30 |  |  |  |  |  |  |  |  |  |  |  |  |  |  | remaining activity at 100 µM (NEK6; [1]): 86%; remaining activity at 100 µM (PIM1; [1]): 26%; remaining activity at 100 µM (EF2K; [1]): 98%; remaining activity at 100 µM (MST2; [1]): 56%; remaining activity at 100 µM (MLK3; [1]): 55%; remaining activity at 100 µM (TAK1; [1]): 17%; remaining activity at 100 µM (SYK; [1]): 86%; remaining activity at 100 µM (HER4; [1]): 90%
2 | COc1ccc2sc(NC(C)=O)nc2c1 [Compound 03-21] | 109 | 93 | 94 | 92 | 85 | 58 |  |  |  |  |  |  |  |  |  |  |  |  |  |  | remaining activity at 100 µM (NEK6; [1]): 108%; remaining activity at 100 µM (PIM1; [1]): 8%; remaining activity at 100 µM (EF2K; [1]): 105%; remaining activity at 100 µM (MST2; [1]): 91%; remaining activity at 100 µM (MLK3; [1]): 59%; remaining activity at 100 µM (TAK1; [1]): 50%; remaining activity at 100 µM (SYK; [1]): 72%; remaining activity at 100 µM (HER4; [1]): 94%
3 | O=C(Nc1nc2ccc(O)cc2s1)c1ccncc1 [Compound 08-42] |  |  |  |  |  |  | 73 | 47 | 62 | 52 | 76 | 22 | 75 | 59 | 79 | 55 | 30 | 25 | 90 | 40 | 
4 | CC(=O)Nc1cccc(NC(=O)c2nc3ccc(O)cc3s2)c1 [Compound 03-07, N-(3-acetamidophenyl)-6-hydroxybenzo[d]thiazole-2-carboxamide] |  |  |  |  |  |  |  |  |  |  |  |  |  |  |  |  |  |  |  |  | remaining activity at 100 µM (ERK2; [2]): 96%; remaining activity at 100 µM (RSK1; [2]): 48%; remaining activity at 100 µM (RSK2; [2]): 71%; remaining activity at 100 µM (PKBb; [2]): 26%; remaining activity at 100 µM (PKCz; [2]): 107%; remaining activity at 100 µM (CHK2; [2]): 23%; remaining activity at 100 µM (NEK6; [2]): 91%; remaining activity at 100 µM (PIM1; [2]): 25%; remaining activity at 100 µM (EF2K; [2]): 91%; remaining activity at 100 µM (MST2; [2]): 68%; remaining activity at 100 µM (MLK3; [2]): 39%; remaining activity at 100 µM (TAK1; [2]): 53%; remaining activity at 100 µM (SYK; [2]): 102%; remaining activity at 100 µM (HER4; [2]): 50%
5 | O=C(Nc1nc2cc(O)ccc2s1)c1ccccn1 [Compound 03-13] |  |  |  |  |  |  | 100 | 70 | 72 | 60 | 102 | 75 | 107 | 39 | 94 | 60 | 57 | 34 | 106 | 98 | 
6 | O=C(Nc1nc2ccc(O)cc2s1)c1ccccn1 [Compound 03-12] |  |  |  |  |  |  | 88 | 67 | 53 | 61 | 88 | 23 | 98 | 51 | 69 | 61 | 46 | 33 | 99 | 33 | 
7 | O=C(Nc1nc2ccc(O)cc2s1)c1cccnc1 [Compound 08-44] |  |  |  |  |  |  | 75 | 41 | 56 | 45 | 81 | 16 | 84 | 42 | 67 | 57 | 26 | 18 | 71 | 17 | 
8 | CC(=O)Nc1nc2cc(C(F)(F)F)ccc2s1 [Compound 03-73] | 108 | 89 | 83 | 104 | 97 | 78 |  |  |  |  |  |  |  |  |  |  |  |  |  |  | remaining activity at 100 µM (NEK6; [1]): 119%; remaining activity at 100 µM (PIM1; [1]): 10%; remaining activity at 100 µM (EF2K; [1]): 109%; remaining activity at 100 µM (MST2; [1]): 80%; remaining activity at 100 µM (MLK3; [1]): 57%; remaining activity at 100 µM (TAK1; [1]): 45%; remaining activity at 100 µM (SYK; [1]): 74%; remaining activity at 100 µM (HER4; [1]): 110%
